Test results from US20250152585A1, “PHARMACEUTICAL COMPOUND” (Duke Street Bio Limited, priority 2022, published 2025).
Where two headings read alike, the source gives them in different places.

Columns and labels:
PARP1 [1] = conditions: Johannes et al. J. Med. Chem. 2021; cited from earlier work
[2] = rodent models; compared with first-generation PARP inhibitors; Illuzzi et al. 2022; cited from earlier work
[3] = target: T1, N-terminally FLAG-tagged PARP2 (amino acids 1-583) (Homo sapiens, UniProt Q9UGN5); test: PARP2 probe displacement HTRF assay; assay type: binding; conditions: binned Kd
T1 construct: N-terminally FLAG-tagged PARP2 (amino acids 1-583)
Experimental: Data analysis was performed identical as for PARP1.

PARP1 [4] = target: T2, PARP1 (Homo sapiens, UniProt P09874); test: NanoBRET cellular target occupancy assay, PARP1; assay type: cell-based; conditions: for Kd: HEK293 cells transiently transfected with PARP1-NanoLuc fusion, tracer 11 nM, 2 hours at 37° C., Kd by Cheng-Prussoff; for Selectivity: NanoBRET, PARP1 over PARP2, Kd (PARP2)/Kd (PARP1)
T2 construct: host or cells: HEK293

PARP2 = target: T3, PARP2 (Homo sapiens, UniProt Q9UGN5); test: NanoBRET cellular target occupancy assay, PARP2; assay type: cell-based; conditions: HEK293 cells transiently transfected with PARP2-NanoLuc fusion; tracer 2 nM; 2 hours at 37° C.; Kd by Cheng-Prussoff
T3 construct: host or cells: HEK293
From the text: NanoBRET Cellular Target Occupancy Assay

[5] = target: T4, full length N-terminally FLAG-tagged PARP1 (Homo sapiens, UniProt P09874); test: PARP1 probe displacement HTRF assay; conditions: for Selectivity: PARP1 over PARP2, ratio Kd (PARP2)/Kd (PARP1); for Kd: binned Kd
[6] = target: T4, full length N-terminally FLAG-tagged PARP1; test: PARP1 biochemical DELFIA assay (auto-PARylation); set-up: recombinant full length human N-terminally FLAG-tagged PARP1
[7] = read-out: PARP1 HTRF, PARP1 probe displacement HTRF
[8] = binned IC50, PARP1 biochemical DELFIA assay
[9] = read-out: PARP1 HTRF, probe displacement HTRF
[10] = binned IC50, biochemical auto-PARylation assay
[11] = PARP1 HTRF, probe displacement HTRF

T2 sequence (P09874 whole entry, the tested form may be a part): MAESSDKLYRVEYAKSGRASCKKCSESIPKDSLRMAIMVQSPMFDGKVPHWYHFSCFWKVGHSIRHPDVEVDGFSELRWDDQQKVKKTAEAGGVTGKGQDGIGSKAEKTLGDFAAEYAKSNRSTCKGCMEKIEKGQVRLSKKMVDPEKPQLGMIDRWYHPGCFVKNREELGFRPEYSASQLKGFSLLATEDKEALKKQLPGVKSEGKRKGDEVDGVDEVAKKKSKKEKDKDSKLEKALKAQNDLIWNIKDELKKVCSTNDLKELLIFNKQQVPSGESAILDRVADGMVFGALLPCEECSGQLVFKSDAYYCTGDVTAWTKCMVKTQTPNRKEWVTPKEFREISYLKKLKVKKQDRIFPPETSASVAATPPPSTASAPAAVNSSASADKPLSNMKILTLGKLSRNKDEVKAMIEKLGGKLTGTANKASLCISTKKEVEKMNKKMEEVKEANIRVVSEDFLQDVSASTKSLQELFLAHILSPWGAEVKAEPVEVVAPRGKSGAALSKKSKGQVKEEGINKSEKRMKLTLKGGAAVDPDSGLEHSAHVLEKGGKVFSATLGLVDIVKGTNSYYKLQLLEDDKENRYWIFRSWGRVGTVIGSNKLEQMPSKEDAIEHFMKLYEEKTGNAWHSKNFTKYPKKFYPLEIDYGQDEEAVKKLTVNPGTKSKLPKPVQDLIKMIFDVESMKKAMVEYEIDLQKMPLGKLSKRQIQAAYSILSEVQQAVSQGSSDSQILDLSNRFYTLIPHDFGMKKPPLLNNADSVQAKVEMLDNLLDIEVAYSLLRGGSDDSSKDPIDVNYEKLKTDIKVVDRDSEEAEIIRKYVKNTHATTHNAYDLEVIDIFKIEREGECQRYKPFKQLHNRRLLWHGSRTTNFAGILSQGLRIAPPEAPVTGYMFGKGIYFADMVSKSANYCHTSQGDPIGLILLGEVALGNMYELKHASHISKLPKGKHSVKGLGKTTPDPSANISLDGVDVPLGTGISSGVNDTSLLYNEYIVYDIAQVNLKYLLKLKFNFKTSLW
T4 sequence (P09874 whole entry): as the sequence (P09874 whole entry, the tested form may be a part) above
T3 sequence (Q9UGN5 whole entry, the tested form may be a part): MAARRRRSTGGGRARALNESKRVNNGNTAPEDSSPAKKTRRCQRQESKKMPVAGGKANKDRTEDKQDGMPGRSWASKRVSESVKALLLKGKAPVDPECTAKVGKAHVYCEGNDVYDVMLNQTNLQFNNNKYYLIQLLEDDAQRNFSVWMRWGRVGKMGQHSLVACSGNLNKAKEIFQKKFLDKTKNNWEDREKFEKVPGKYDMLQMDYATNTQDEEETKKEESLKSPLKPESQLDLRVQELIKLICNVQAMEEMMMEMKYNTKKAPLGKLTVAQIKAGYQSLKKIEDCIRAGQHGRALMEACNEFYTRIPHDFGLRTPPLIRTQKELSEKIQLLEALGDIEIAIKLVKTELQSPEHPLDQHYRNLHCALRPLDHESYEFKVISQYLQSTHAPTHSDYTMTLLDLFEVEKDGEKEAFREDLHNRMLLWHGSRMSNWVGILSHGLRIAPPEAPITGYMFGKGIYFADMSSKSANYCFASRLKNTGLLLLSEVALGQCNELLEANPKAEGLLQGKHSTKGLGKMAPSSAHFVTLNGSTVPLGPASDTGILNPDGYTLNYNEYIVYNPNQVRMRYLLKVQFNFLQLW
T1 sequence (Q9UGN5 whole entry, the tested form may be a part): as above

| SMILES | selectivity over PARP2 (PARP1 [1]) | haematotoxicity [2] | Kd ([3]; PARP2 probe displacement HTRF) | Kd (PARP1 [4]) | Selectivity (PARP1 [4]) | Kd (PARP2) | Selectivity ([5]; probe displacement HTRF) | Kd [5, 7] | IC50 [6, 8] | Kd ([3]; probe displacement HTRF) | Kd [5, 9] | IC50 [6, 10] | Kd ([5]; PARP1 HTRF, PARP1 probe displacement HTRF) | Kd [5, 11] |
| --- | --- | --- | --- | --- | --- | --- | --- | --- | --- | --- | --- | --- | --- | --- |
| CCc1cc2ncc(CN3CCN(c4ccc(C(=O)NC)nc4)CC3)cc2[nH]c1=O [AZD5305] | 500 fold | significantly less haematotoxicity |  |  |  |  |  |  |  |  |  |  |  |  |
| CNC(=O)c1ccc(N2CCC(N3CCC(c4nc5ccc(Cl)cc5c(=O)[nH]4)C3)CC2)cn1 (single isomer, unassigned) [Compound 68a] |  |  | 100 to 1000 nM | < 10 nM | +++ (+++ indicate a value of at least 100) | 1000 to 10000 nM | +++ (+++ indicate a value of at least 100) | < 10 nM | < 10 nM |  |  |  |  |  |
| CNC(=O)c1ccc(N2CCC(N3CCC(c4nc5c(c(C(F)(F)F)cn5C)c(=O)[nH]4)C3)CC2)cn1 (racemic) [Compound 170rac] |  |  | < 10 nM | < 10 nM | + (+ indicates a value of 10 to less than 50) | 10 to 100 nM | − (− indicates a value of less than 10) | < 10 nM | < 10 nM |  |  |  |  |  |
| CNC(=O)c1ccc(N2CCC(N3CCC(c4cc5ncc(Cl)cc5c(=O)[nH]4)C3)CC2)cn1 (racemic) [Compound 329rac] |  |  |  | < 10 nM | +++ (+++ indicate a value of at least 100) | 1000 to 10000 nM | +++ (+++ indicate a value of at least 100) |  |  | 100 to 1000 nM | < 10 nM | < 10 nM |  |  |
| CNC(=O)c1ccc(N2CCC(N3CCC(c4cc5c(Cl)cccc5c(=O)[nH]4)C3)CC2)cn1 (single isomer, unassigned) [Compound 137b] |  |  | 10 to 100 nM | < 10 nM | +++ (+++ indicate a value of at least 100) | 100 to 1000 nM | + (+ indicates a value of 10 to less than 50) | < 10 nM | < 10 nM |  |  |  |  |  |
| CNC(=O)c1ccc(N2CCC(N3CC4(c5nc6ccccc6c(=O)[nH]5)CC3C4)CC2)cn1 [Compound 192, N-methyl-5-(4-(4-(4-oxo-3,4-dihydroquinazolin-2-yl)-2-azabicyclo[2.1.1]hexan-2-yl)piperidin-1-yl)picolinamide] |  |  | 1000 to 10000 nM | < 10 nM | +++ (+++ indicate a value of at least 100) | 1000 to 10000 nM | +++ (+++ indicate a value of at least 100) |  | < 10 nM |  |  |  | < 10 nM |  |
| CNC(=O)c1ccc(N2CCC(N3CC4(c5nc6ccc(F)cc6c(=O)[nH]5)CC3C4)CC2)c(F)n1 [Compound 259, 6-fluoro-5-(4-(4-(6-fluoro-4-oxo-3,4-dihydroquinazolin-2-yl)-2-azabicyclo[2.1.1]hexan-2-yl)piperidin-1-yl)-N-methylpicolinamide] |  |  |  | < 10 nM | +++ (+++ indicate a value of at least 100) | 1000 to 10000 nM | +++ (+++ indicate a value of at least 100) |  |  | 100 to 1000 nM |  | < 10 nM |  | < 10 nM |
| CNC(=O)c1ccc(N2CCC(N3CCC(c4cc5cccc(F)c5c(=O)[nH]4)C3)CC2)cn1 (single isomer, unassigned) [Compound 136b, 5-{4-[3-(8-fluoro-1-oxo-2H-isoquinolin-3-yl)pyrrolidin-1-yl]piperidin-1-yl}-N-methylpyridine-2-carboxamide] |  |  | 10 to 100 nM | < 10 nM | +++ (+++ indicate a value of at least 100) | 100 to 1000 nM | +++ (+++ indicate a value of at least 100) | < 10 nM | < 10 nM |  |  |  |  |  |
| CCc1ccc(C2CCN(C3CCN(c4ccc(C(=O)NCCF)nc4F)CC3)C2)[nH]c1=O (single isomer, unassigned) [Compound 322b] |  |  |  | < 10 nM | +++ (+++ indicate a value of at least 100) | 100 to 1000 nM | +++ (+++ indicate a value of at least 100) |  |  | 100 to 1000 nM | < 10 nM | < 10 nM |  |  |
| CNC(=O)c1ccc(N2CCC(N3CCC(c4cc5ccc(F)cc5c(=O)[nH]4)C3)CC2)cn1 (single isomer, unassigned) [Compound 154b, 5-(4-(3-(7-fluoro-1-oxo-1,2-dihydroisoquinolin-3-yl)pyrrolidin-1-yl)piperidin-1-yl)-N-methylpicolinamide] |  |  | 10 to 100 nM | < 10 nM | +++ (+++ indicate a value of at least 100) | 100 to 1000 nM | + (+ indicates a value of 10 to less than 50) | < 10 nM | < 10 nM |  |  |  |  |  |
| CNC(=O)c1ccc(N2CCC(N3CCC(c4cc5cccc(F)c5c(=O)[nH]4)C3)CC2)c(Cl)n1 (single isomer, unassigned) [Compound 183b] |  |  | 100 to 1000 nM | < 10 nM | +++ (+++ indicate a value of at least 100) | 1000 to 10000 nM | +++ (+++ indicate a value of at least 100) | < 10 nM | < 10 nM |  |  |  |  |  |
| CNC(=O)c1ccc(N2CCC(N3CCC(c4cc5ncc(Cl)cc5c(=O)[nH]4)C3)CC2)c(F)n1 (single isomer, unassigned) [Compound 344b] |  |  |  | < 10 nM | +++ (+++ indicate a value of at least 100) | > 10000 nM | +++ (+++ indicate a value of at least 100) |  |  | 1000 to 10000 nM | < 10 nM | < 10 nM |  |  |
| CNC(=O)c1ccc(N2CCC(N3CC4(c5nc6c(c(=O)[nH]5)CCC6)CC3C4)CC2)cn1 [Compound 295] |  |  |  | 10 to 100 nM | ++ (++ indicates a value of 50 to less than 100) | > 10000 nM | +++ (+++ indicate a value of at least 100) |  |  | > 10000 nM |  | < 10 nM |  | < 10 nM |
| CNC(=O)c1ccc(N2CCC(N3CCC(c4cc5ccc(F)cc5c(=O)[nH]4)C3)CC2)nn1 (single isomer, unassigned) [Compound 197a] |  |  | 100 to 1000 nM | < 10 nM | +++ (+++ indicate a value of at least 100) | 100 to 1000 nM | +++ (+++ indicate a value of at least 100) | < 10 nM | < 10 nM |  |  |  |  |  |
| CCc1cc(Cl)c(C2CCN(C3CCN(c4ccc(C(=O)NC)nc4)CC3)C2)[nH]c1=O (racemic) [Compound 255rac] |  |  |  | < 10 nM | +++ (+++ indicate a value of at least 100) | 1000 to 10000 nM | ++ (++ indicates a value of 50 to less than 100) |  |  | 100 to 1000 nM | < 10 nM | < 10 nM |  |  |
| CNC(=O)c1ccc(N2CCC(N3CC4(c5nc6ccccc6c(=O)[nH]5)CC3C4)CC2)c(F)n1 [Compound 260] |  |  |  | < 10 nM | +++ (+++ indicate a value of at least 100) | > 10000 nM | +++ (+++ indicate a value of at least 100) |  |  | 1000 to 10000 nM |  | < 10 nM |  | < 10 nM |
| CNC(=O)c1ccc(N2CCC(N3CCC(c4cc5c(F)ccc(F)c5c(=O)[nH]4)C3)CC2)c(F)n1 (single isomer, unassigned) [Compound 323a] |  |  |  | < 10 nM | +++ (+++ indicate a value of at least 100) | > 10000 nM | +++ (+++ indicate a value of at least 100) |  |  | > 10000 nM | < 10 nM | < 10 nM |  |  |
